The values below come from ChEMBL document CHEMBL5338755, “Thiophene Carboxamide Analogs with Long Alkyl Chains Comprising Ethylene Glycol Units Inhibit Glioblastoma Cell Proliferation by Activating AMPK” (J Med Chem, 2023).

Calls of active or inactive are those of the source. The calls are words filed in the database; no cut-off is given here.

The test system of data set [1] is Glioblastoma stem cell. The data set can be described thus: Inhibition of cell proliferation of human Glioblastoma stem cell assessed as reduction in viable cell number at 100 to 500 nM measured after 72 hrs by trypan blue exclusion assay. In kind it is functional, cell-based. The following applies: dose 100-500 nM.
Data set [2] concerns Glioblastoma stem cell. The data set can be described thus: Inhibition of cell proliferation of human Glioblastoma stem cell assessed as reduction in viable cell number at 500 nM measured after 72 hrs by trypan blue exclusion assay. In kind it is functional, cell-based.
For data set [3], the system named is U-251. The data set is described as follows: Synergistic antiproliferative activity against human U-251 cells incubated for 6 days in presence of temozolomide by trypan blue staining based automated cell counter analysis. The class given is functional. The following applies: U-251, 144 h, time 6 day, read-out: ED50 (the source's name).
A short description of data set [4]: Antiproliferative activity against human Glioblastoma stem cell assessed as reduction in cell count at 100 to 500 nM measured after 72 hrs by trypan blue exclusion assay. The class given is functional. The following applies: dose 100-500 nM.
The subject of data set [5] is U-251. The data set is described as follows: Synergistic antiproliferative activity against human U-251 cells assessed as combination index at ED50 concentration incubated for 6 days in presence of temozolomide by trypan blue staining based automated cell counter analysis. The class given is functional. The following applies: time 6 day.
Data set [6] relates to Glioblastoma cell line. The data set can be described thus: Antitumor activity against human Glioblastoma stem cell xenografted in mouse model assessed as improvement in event-free survival rate at 10 mg/kg, ip administered 3 times in a week for 40 days. In kind it is functional, organism-based. Particulars: time 40.0 day.
The nature of data set [7]: Toxicity in CB-17 SCID mouse xenografted with human SW48 cells assessed as body weigh loss at 20 mg/kg administered daily and measured after 3 weeks. In kind it is organism-based. Particulars: in vivo, 504 h.
In the next data set the test system is SW48. The data set is described as follows: Antitumor activity against human SW48 cells xenografted in CB-17 SCID mouse assessed as reduction in tumor size at 20 mg/kg administered daily and measured after 3 weeks by vernier caliper method (reference value: 997+/-180 mm3). In kind it is functional.
Data set [8] deals with U-251. The data set is described as follows: Synergistic antiproliferative activity against human U-251 cells assessed as combination index at ED75 concentration incubated for 6 days in presence of temozolomide by trypan blue staining based automated cell counter analysis. The class given is functional. The following applies: time 6 day.
The test system of data set [9] is Glioblastoma stem cell. The data set can be described thus: Activation of AMPK in human Glioblastoma stem cell assessed as inhibition of cell growth at 500 nM measured after 48 hrs. The class given is cell-based.
In data set [10] the test system is Glioblastoma stem cell. The data set can be described thus: Activation of AMPK in human Glioblastoma stem cell assessed as increase in AMP/ATP ratio at 500 nM measured after 48 hrs. In kind it is cell-based. The following applies: filed as activator.
The nature of data set [11]: Toxicity in CB-17 SCID mouse xenografted with human SW48 cells assessed as drug tolerance at 20 mg/kg administered daily and measured after 3 weeks. The following applies: in vivo, 504 h. In kind it is organism-based.
The test system of data set [12] is Glioblastoma stem cell. The data set is described as follows: Activation of AMPK in human Glioblastoma stem cell assessed as increase in AMPK phosphorylation level at 500 nM measured after 48 hrs. The class given is cell-based.
Data set [13] relates to Glioblastoma stem cell. The data set can be described thus: Activation of AMPK in human Glioblastoma stem cell assessed as increase in intracellular AMP level at 500 nM measured after 48 hrs by AMP-Glo assay. The following applies: filed as activator. In kind it is cell-based.
The test system of data set [14] is Glioblastoma stem cell. The data set can be described thus: Activation of AMPK in human Glioblastoma stem cell assessed as decrease in intracellular ATP level at 500 nM measured after 48 hrs by celltiter-glo luminescent cell viability assay. Particulars: filed as activator. In kind it is cell-based.
The subject of data set [15] is Glioblastoma cell line. The data set can be described thus: Antitumor activity against human Glioblastoma stem cell xenografted in mouse model assessed as suppression of tumor growth by measuring luminescence signals at 10 mg/kg, ip administered 3 times in a week for and measured after 3 weeks by IVIS Lumina XR imaging system. The class given is functional, organism-based.

Regarding `COCCOCCOCCOCCCCCCCCCCCCNC(=O)c1csc(Br)c1`, in the data set with Glioblastoma stem cell [1], the inhibition result is “inactive”.

`CCCOCCOCCOCCOCCCCCCCCCCCCNC(=O)c1ccsc1`: the inhibition entry with Glioblastoma stem cell [1] was “inactive”. In the data set with Glioblastoma stem cell [2], the inhibition entry is “Active”.

Consider `COCCOCCOCCOCCCCCCCCCCCCNC(=O)c1cscc1C`, for which the inhibition result in the data set on Glioblastoma stem cell [1] was “inactive”.

Consider `CCCCCCCCCCCC[C@@H](O)[C@@H]1CC[C@@H]([C@H](O)CCCCCCCCCCNC(=O)c2ccsc2)O1`, for which the EC50 in the data set on U-251 [3] was determined as 179 nM. The Activity in [4] is 153000. The CI in the data set with U-251 [5] stood at 0.972.

`CCCCCCCCCCOCCOCCOCCOCCCCCCCCCCCCNC(=O)c1ccsc1`: the result in the data set on Glioblastoma cell line [6], in the data set with Glioblastoma stem cell [9] (filed as activator), in the data set on Glioblastoma stem cell [10], in the data set on Glioblastoma stem cell [12] (filed as activator), in the data set on Glioblastoma stem cell [13] and with Glioblastoma stem cell [14] was Active. Also, the result in the data set with Glioblastoma cell line [15] was Active. For the same compound, the Activity result in data set [7] is listed as “Non-Toxic”; in the data set with SW48, 352 mm3; in [11] it was “Non-Toxic”. Further, the EC50 in the data set with U-251 [3] stood at 43 nM. Further, the results for the CI in the data set on U-251 [8] and in the data set with U-251 [5] were 0.765 and 0.325, respectively. For the same compound, in the data set on Glioblastoma stem cell [1], the inhibition entry was “Active”.

For the compound `CCCCCCOCCOCCOCCOCCCCCCCCCCCCNC(=O)c1ccsc1`, the inhibition result in the data set on Glioblastoma stem cell [1] was “inactive”.

With `CCCCCCCCCOCCOCCOCCOCCCCCCCCCCCCNC(=O)c1ccsc1`, the outcome with Glioblastoma stem cell [9] (filed as activator) and in the data set with Glioblastoma stem cell [12] (filed as activator) was Active. In addition, in the data set with Glioblastoma stem cell [1], the inhibition entry was “Active”.

`COCCOCCOCCOCCCCCCCCCCCCNC(=O)c1ccsc1C`: the inhibition result in the data set with Glioblastoma stem cell [1] is “inactive”.

As for `COCCOCCOCCOCCCCCCCCCCCCNC(=O)c1csc(C)c1`, the result with Glioblastoma stem cell [9] and in the data set on Glioblastoma stem cell [12] was inactive. Besides, the inhibition result with Glioblastoma stem cell [1] was “inactive”.

Take `COCCOCCOCCOCCCCCCCCCCCCNC(=O)c1cscc1Br`: the inhibition entry with Glioblastoma stem cell [2] was “Active”.

Regarding `COCCOCCOCCOCCCCCCCCCCCCNC(=O)c1ccsc1`, the Activity in data set [4] turned out to be 483000. Moreover, in the data set with Glioblastoma stem cell [1], the inhibition entry is “inactive”. Moreover, the inhibition entry in the data set on Glioblastoma stem cell [2] is “Active”.

Regarding `O=C(NCCCCCCCCCCCCOCCOCCOCCO)c1ccsc1`, in the data set with Glioblastoma stem cell [1], the inhibition result was “inactive”.
